In general, MIC refers to the smallest concentration in the dilution series that meets the test's criterion for growth inhibition.

Consider one molecule from US10632148B2, “Growth control of oral and superficial organisms using gallium compounds” (MOUNT SINAI SCHOOL OF MEDICINE, priority 2005, dated 2020).

One data set has as its system Salmonella typhi. The data set can be described thus: Susceptibility to gallium nitrate, MIC/MBC, macrodilution broth method. The conditions noted are these: Muller Hinton broth, tryptic soy agar with 5% sheep blood, 36° C. for 48 hours, 8.3 × 10^5 CFU/ml. The data set is classed as cell-based, Salmonella typhi ATCC 6539.
The subject of data set [1] is Vancomycin-resistant Enterococcus faecalis (VRE). The data set is described as above. As to conditions: Muller Hinton broth, tryptic soy agar with 5% sheep blood, 36° C. for 48 hours, 3.9 × 10^5 CFU/ml. The data set is classed as cell-based, Enterococcus faecalis ATCC 51575.
For a further data set, the system named is Candida albicans. The data set can be described thus: Susceptibility to gallium nitrate, MIC/MBC, microdilution broth method. Format: cell-based, Candida albicans ATCC 10231. The conditions noted are these: 27° C. for 48 hours, 9.75 × 10^5 CFU/ml. Here is the method: (§1) Susceptibility of various microorganisms to gallium was tested by determining the minimum inhibitory concentration (MIC) and minimum bactericidal concentration (MBC) for each microorganism using gallium nitrate. In general, MIC is determined by (i) mixing a series of broths, each containing a standard number of microorganisms, with serially diluted solutions of the gallium compound; and (ii) determining the MIC, after incubation, that is the lowest concentration of the gallium compound that has inhibited the growth of the microorganism. The lower the MIC, the more susceptible the organism is. The MBC is determined by subculturing an aliquot of each sample from the MIC test on an appropriate agar plate containing no gallium compound. After incubation, the MBC is determined to be the lowest concentration of the gallium compound at which no growth is observed.
(§2) Specifically, in the present experiment, two grams of gallium nitrate powder were dissolved in 10 ml of filter-sterilized deionized water and the resulting 20% (w/v) (i.e., 200 mg/ml) solution was once again filter-sterilized. […]
(§3) The growth of the microorganisms were determined by visual observation of turbidity in the samples. […]
For orientation: In broth dilution the organism is exposed to a series of concentrations in liquid medium.

Data set [2] relates to Methicillin-resistant Staphylococcus aureus (MRSA). The data set can be described thus: Susceptibility to gallium nitrate, MIC/MBC, macrodilution broth method. The data set is classed as cell-based, Staphylococcus aureus ATCC 33592. The conditions noted are these: Muller Hinton broth, tryptic soy agar with 5% sheep blood, 36° C. for 48 hours, 5.2 × 10^5 CFU/ml.
For data set [3] the following is noted: healthy adults, intravenous infusion for at least 7 days; cited from earlier work.
The next data set concerns Pseudomonas aeruginosa. The data set can be described thus: Susceptibility to gallium nitrate, MIC/MBC, macrodilution broth method. The conditions noted are these: Muller Hinton broth, tryptic soy agar with 5% sheep blood, 36° C. for 48 hours, 7.6 × 10^5 CFU/ml. The data set is classed as cell-based, Pseudomonas aeruginosa ATCC 15442.
A further data set concerns Streptococcus mutans. The data set can be described thus: Susceptibility to gallium nitrate, MIC/MBC, microdilution broth method. As to conditions: Brain Heart Infusion broth, blood agar, 36° C. for 48 hours, 4.1 × 10^6 CFU/ml. Format: cell-based, Streptococcus mutans ATCC 25175. Here is the method: as §1, §2, §3
The next data set deals with Escherichia coli O157:H7. The data set is described as above. The data set is classed as cell-based, Escherichia coli O157:H7 ATCC 35150. The conditions noted are these: Muller Hinton broth, tryptic soy agar with 5% sheep blood, 36° C. for 48 hours, 1.38 × 10^6 CFU/ml. Here is the method: as §1, §2, §3
The next data set has as its system Porphyromonas gingivalis. The data set is classed as cell-based, Porphyromonas gingivalis ATCC 33277.
The subject of another data set is Campylobacter jejuni. Description: Susceptibility to gallium nitrate, MIC/MBC, microdilution broth method. The data set is classed as cell-based, Campylobacter jejuni ATCC 29428. As to conditions: Muller Hinton broth, tryptic soy agar with 5% sheep blood, 36° C. for 48 hours, 4.9 × 10^5 CFU/ml. As for the experimental part:
as §1, §2, §3

With `O=[N+]([O-])[O-].O=[N+]([O-])[O-].O=[N+]([O-])[O-].[Ga+3]` [gallium nitrate], the MBC is 6250 µg/mL in the data set on Salmonella typhi; 25000 µg/mL in data set [1]; >100000 µg/mL in the data set with Candida albicans (Sabouraud dextrose agar); 12500 µg/mL in data set [2]; 6250 µg/mL with Pseudomonas aeruginosa; 5000 µg/mL against Streptococcus mutans. The MBC with Escherichia coli O157:H7 was 6250 µg/mL; in the data set on Porphyromonas gingivalis it was <780 µg/mL; in the data set with Campylobacter jejuni, <780 µg/mL. In the data set on Candida albicans (Sabouraud Dextrose broth), the MIC came out at 10000 µg/mL. For the same molecule, in [3], the tolerated dose result is “at least 200 mg/m^2/day”.
